From a melting point compilation (Tetko et al.) come the findings set out here.

Take `O=C(NC(Cc1ccccn1)C(=O)O)OCC1c2ccccc2-c2ccccc21` (stereo not drawn): the melting point turned out to be 154 °C.

As to `c1ccc(C2=NN(c3ccccc3)CN2c2ccccc2)cc1`, the melting point was determined as 150 °C.

In turn, `CCCOC(=O)c1ccccc1O` yielded a melting point of 97 °C.

Compound `CCOC(=O)C=Cc1ccc(C=CC(=O)OCC)c(N)c1` yielded a melting point of 178 °C.

As to `O=[N+]([O-])c1c[nH]cn1`, the melting point was 303 °C.

Regarding `N#Cc1c(N)oc(-c2ccccc2)c1-c1ccccc1`, the melting point was 205 to 208 °C.

As to `CCOC(=O)c1ccccc1O`, the melting point was in the range of 2 to 3 °C.

For the compound `c1cc2occc2c(N2CCNCC2)n1`, the melting point lay in the range of 58 to 60 °C.

On to `O=c1c(=O)c2ccccc12`, for which the melting point was determined as 131 °C.

As to `ICCc1ccc(CCI)cc1`, the melting point turned out to be 111 °C.

Turning to `O=C(O)c1cccc(N2CCCC2)c1`, the melting point was 215 to 217 °C.

With `C1CN2CCC1CC2`, the melting point is 158 °C.

Compound `Cc1cc(C(N)=O)ccc1Br` gave a melting point of 180 °C.

With `O=C(Nc1cccc([N+](=O)[O-])c1)C(C(F)(F)F)C(F)(F)F`, the melting point was 200 °C.

Take `OC(c1ccc(Cl)cc1)(c1ccc(Cl)cc1)c1ccc(Cl)cc1`: the melting point was 95.5 °C.

On to `CC(=O)NC(Cc1c[nH]c2ccccc12)C(N)=O` (stereo not drawn), for which the melting point came to 195 °C.

For `CC(=O)C1CCC2(C)C(CC(=O)C3C4CCC(=O)C4(C)CCC32)C1` (stereo not drawn), the melting point is 237 °C.

In the case of `CC(=O)c1sc(-c2cccs2)nc1C`, the melting point is 121 to 122 °C.

In turn, `C/C=C/C1Nn2c(nnc2-c2cccnc2)S1` (stereo not drawn) returned a melting point of 120 to 122 °C.

Take `CCCCc1ccc(NC(=O)Oc2ccc(OC)cc2)cc1`: the melting point stood at 143 °C.

For `CC12CCC(C3(CCC(=O)O3)C1=O)C2(C)C` (stereo not drawn), the melting point was determined as 207 °C.

In the case of `O=C(Cl)c1ccc(I)cc1`, the melting point was determined as 63 °C.

Turning to `COc1cccc(OC)c1/C=N/n1c(S)nnc1C(F)(F)F`, the melting point amounted to 178 °C.

`CC1(C)CC(=O)C(=NNc2ccccc2[N+](=O)[O-])C(=O)C1` returned a melting point of 139 to 140 °C.

In the case of `Clc1cc(Cl)c(-c2c(Cl)cccc2Cl)c(Cl)c1`, the melting point was 85 °C.

Consider `CC(C)CC(=O)C1C(=O)c2ccccc2C1=O`, for which the melting point was 68.5 °C.

As to `CC(=O)Oc1ccc(OC(C)=O)c(-c2ccccc2)c1`, the melting point was determined as 68 °C.

In turn, `CN(N)c1ccc(C(F)(F)F)cn1` yielded a melting point of 52 to 55 °C.

For `CCC1=CN(S(=O)(=O)c2ccc(C)cc2)C[C@@H]1CCc1cccc(C(=O)OC)c1`, the melting point came to 67.5 °C.

`CC(=O)NC1CCSC1=O` (racemic): the melting point was found to be 110 °C.

`NC(=O)N=NC(N)=O` displayed a melting point of 195 to 202 °C.

`COc1ccc(S(=O)(=O)Cl)c(OC)c1` showed a melting point of 72 °C.

On to `CC(=O)n1nc(C(F)(F)F)cc1-c1ccccc1`, for which the melting point came to 77 °C.

Compound `N#Cc1ccc[nH]c1=O` registered a melting point of 222 to 225 °C.

With `O=C1CC(c2ccccc2)=NO1`, the melting point fell in the range of 150 to 154 °C.

With `CCCC(c1ccc(O)cc1)c1ccc(O)cc1`, the melting point came to 137 °C.

Regarding `CCOC(=O)c1sc2sc(C#N)c(C)c2c1C`, the melting point lay within 155 to 157 °C.

As to `CCc1c(Br)c(Br)c(Br)c(Br)c1Br`, the melting point turned out to be 138 °C.

Consider `c1ccc(-c2ccc(-c3nnc(-c4ccccc4)o3)cc2)cc1`, for which the melting point was in the range of 168 to 172 °C.

Compound `CCOC(=O)C(C#N)=C(S)Nc1ccccc1` yielded a melting point of 118 to 119 °C.

For `NC(=S)NN=C1C2CCCC1C1(O)CCCCC1C2c1ccccc1` (stereo not drawn), the melting point stood at 205 °C.

Take `NCc1cc(C(F)(F)F)cc(C(F)(F)F)c1`: the melting point was determined as 57 °C.

`N#C/C(=C\c1ccccc1)c1nc2ccccc2s1` gave a melting point of 105 °C.

`CCOC(=O)C1=Nc2cc3c(cc2=C1OC(C)=O)C(OC(C)=O)=C(C(=O)OCC)N=3` displayed a melting point of 178 °C.

`Cc1onc(-c2ccccc2)c1C=O` gave a melting point of 41 to 43 °C.

On to `N#CC1CCCC1`, for which the melting point was -76 °C.

Take `CC12CCC(C(OC(=O)c3ccc([N+](=O)[O-])cc3)=CC1=O)C2(C)C` (stereo not drawn): the melting point amounted to 121 °C.

As to `FC(F)(F)c1cccc(-n2cc[nH]c2=S)c1`, the melting point was in the range of 157 to 159 °C.

With `CC1(C)CC(=O)C2=C(C1)Nc1c(ccc3ccccc13)C2c1ccc(F)cc1` (stereo not drawn), the melting point came to 279 °C.

`O=C(O)c1cscc1S(=O)(=O)c1ccc(Cl)cc1` gave a melting point of 214 to 216 °C.

Compound `CC(C)(C)OC(=O)N[C@@H](Cc1ccc(Cl)cc1)C(=O)O` came in with a melting point of 110 °C.

Compound `NC(CCC(=O)NC(CS)C(=O)NCC(=O)O)C(=O)O` (stereo not drawn) gave a melting point of 195 °C.

`Cc1ccccc1NN=C1C(=O)CC(C)(C)CC1=O`: the melting point worked out at 109 °C.

Take `CC(C)(C)c1cc(C(F)(F)F)nc(N)n1`: the melting point was in the range of 48 to 50 °C.

Regarding `C=CCN(CC=C)C(=O)COC(=O)c1ccccc1`, the melting point was determined as 42.5 °C.

In turn, `COc1ccc([N+](=O)[O-])c(SC(C)C(=O)O)n1` (stereo not drawn) returned a melting point of 196 to 199 °C.

`CCOC(=O)Cc1ccc(O)cc1`: the melting point lay within 39 to 40 °C.

Compound `CC(O)c1ccccc1` (stereo not drawn) displayed a melting point of 20 °C.

Regarding `CCC1(CC2(c3cccc(Cl)c3)CO2)C(=O)c2ccccc2C1=O` (stereo not drawn), the melting point was determined as 61 °C.

`Cc1nn(Cc2nnc(S)o2)c(C)c1Br` registered a melting point of 194 to 195 °C.

`C=CCc1ccccc1O`: the melting point is -6 °C.

`CCc1ccc(O)c(OC)c1` registered a melting point of 15 °C.

Turning to `CCCCCCCCCCCC(N)=O`, the melting point is 110 °C.

Take `O=C(C=Cc1ccccc1)OCC=Cc1ccccc1`: the melting point was 44 °C.

For `c1ccc2c(c1)cc1ccc3c4ccccc4cc4ccc2c1c43`, the melting point was determined as 317 °C.

`Cc1cc(C)c(C)c(I)c1C`: the melting point turned out to be 79 °C.

With `CCOC(=O)c1cc(O)c(O)c(O)c1`, the melting point was in the range of 151 to 154 °C.

In turn, `Nc1cc(O)c(Cl)cc1Cl` had a melting point of 133 to 137 °C.

Compound `ON=CNc1ncccn1` returned a melting point of 184 to 186 °C.

In turn, `CCN(CC)c1ccc(N=O)cc1` gave a melting point of 87.5 °C.

As to `CCOP(=S)(OCC)SCSP(=S)(OCC)OCC`, the melting point was -12 °C.

The compound `C=C(C)c1ccc(C)c2ccc(C=O)c-2c1` showed a melting point of 58 °C.

`CCCCC(CC)COP(=O)(O)OCC(CC)CCCC` (stereo not drawn): the melting point was -50 °C.

The compound `CCOC(=O)C1=C2c3ncccc3ON2C(Cl)C(Cl)C1Cl` (stereo not drawn) gave a melting point of 105 °C.

Take `CC(=O)OCCN(CCC#N)c1ccc(N=Nc2nc3ccc([N+](=O)[O-])cc3s2)cc1`: the melting point is 167 °C.

With `CCCC(O)CC(C)C` (stereo not drawn), the melting point is -81 °C.

For `CC(C)(O)CCc1ccccc1O`, the melting point was in the range of 114 to 116 °C.

In the case of `C1=CCCCC=C1`, the melting point was -110 °C.

`CCOC(=O)C1=C(N)CCC1`: the melting point lay within 57 to 60 °C.

`O=C1CCC(c2ccc(NC(=O)c3cccc(C(F)(F)F)c3)cc2)=NN1` came in with a melting point of 234 to 235 °C.

`Clc1nc2ccccc2[nH]1`: the melting point is 200 °C.

`OCC(I)CC(F)(F)C(F)(F)C(F)(F)C(F)(F)C(F)(F)C(F)(F)F` (stereo not drawn): the melting point fell in the range of 45 to 46 °C.

`CC1(C)C2CCC13CS(=O)(=O)N[C@H]3C2` (stereo partly drawn) displayed a melting point of 181 to 185 °C.

Turning to `CCOC(=O)CCCCCCC(=O)OCC`, the melting point worked out at 5.9 °C.

`BrC(c1ccccc1)c1ccccc1` gave a melting point of 45 °C.

Regarding `CCCCCCCC1CCCC(=O)O1` (stereo not drawn), the melting point is -12 °C.

In turn, `O=C1CCCN1C1CCCCC1` returned a melting point of 13 °C.

As for `C=CCOC(=O)C=CC(=O)OCC=C`, the melting point is -47 °C.

In the case of `CC(=O)Nc1ccccc1CCN(CCc1ccccc1NC(C)=O)N=O`, the melting point worked out at 172 °C.

Regarding `Cc1ccc(S(=O)(=O)NC(=O)NC2CCCCC2)cc1`, the melting point amounted to 175 °C.

Consider `CC1=C(C(=O)OC(C)(C)C)C(c2ccco2)NC(=O)N1` (stereo not drawn), for which the melting point was determined as 208 °C.

Consider `Cc1nn(-c2ccccc2)c(C)c1C#N`, for which the melting point was 85 to 86 °C.

As for `Cc1nc2ccc(N)cc2s1`, the melting point was in the range of 122 to 124 °C.

For `N#Cc1ccc2c(c1)OCCO2`, the melting point lay in the range of 104 to 106 °C.

As for `O=S(=O)(c1ccccc1)n1cc(CO)c2ccccc21`, the melting point was in the range of 90 to 91 °C.

`O=C(O)[C@H]1NCC[C@@H]1O` registered a melting point of 235 °C.

Take `NC(=S)c1ccncc1`: the melting point was 201 °C.

`O=C(CC1(O)Cc2ccccc21)c1ccccc1` (stereo not drawn) registered a melting point of 83 to 83.5 °C.

In the case of `COc1cc(CCn2cccc2C(=O)O)cc(OC)c1OC`, the melting point was determined as 132 °C.

Take `CC12CCC3C(CCC4CC(O)(C#CCl)CCC43C)C1CCC2O` (stereo not drawn): the melting point is 120 °C.

Compound `CCCCCOC(=O)C1=C(C)NC(=O)NC1c1ccco1` (stereo not drawn) came in with a melting point of 166 to 167 °C.

Turning to `Cc1cc(F)ccc1N`, the melting point came out at 14.2 °C.

`O=C(C1CCNCC1)N1CCCCC1` registered a melting point of 107 to 109 °C.

As for `CC(C)(C)c1ccc(-c2cc(N)c(C(N)=O)s2)cc1`, the melting point lay within 244 to 248 °C.

Take `O=S(=O)(NO)c1ccccc1`: the melting point is 120 to 125 °C.

Regarding `O=C(CCC(=O)Oc1ccccc1)Oc1ccccc1`, the melting point turned out to be 121 °C.

With `Cc1sc2c(c1C)C(=O)CS(=O)(=O)N2C`, the melting point fell in the range of 122 to 124 °C.

As for `O=C1C(c2ccccc2)=C(c2ccccc2)c2ccccc21`, the melting point was in the range of 151 to 155 °C.

As for `O=C(O)c1ccc[nH]c1=S`, the melting point stood at 270 °C.

The compound `O=[N+]([O-])c1ccc(-c2ccno2)cc1` gave a melting point of 172 to 174 °C.

As to `C=CCCCCCCC1CO1` (stereo not drawn), the melting point came to 25 °C.

Turning to `CC(CC1CCCCC1)C1CCCCC1` (stereo not drawn), the melting point is -22 °C.

As for `CC(=S)Nc1ccccc1`, the melting point worked out at 77.5 °C.

Usually melting point stands for the temperature, or range, at which the solid turns liquid.
